From patent US20120022026A1, “METHOD OF TREATING CANCER” (ERASMUS UNIVERSITY MEDICAL CENTER ROTTERDAM, priority 2009, published 2012)
Like-named read-outs stand apart in the source and are kept apart here. Residues, ends and D or L forms follow the SMILES beside them. *: point of attachment. Cbz = O=C(OCc1ccccc1)*

Experiments:
U2OS cells = experiment: Clonogenic assay, U2OS cells with mild hyperthermia; format: cell-based, human; conditions: 41° C., 100 μM NU1025 (FIG. 3A)
Protocol: (§1) Embryonic stem (ES) cells were cultured on gelatin-coated dishes in a 1:1 mixture of Dulbecco's modified Eagle's medium (DMEM) and buffalo rat liver conditioned medium, supplemented with 10% FBS (Hyclone), 0.1 mM nonessential amino acids (Biowhittaker), […] β-mercaptoethanol (Sigma) and 500 U ml-1 leukemia inhibitory factor. Other cells were cultured in following media, supplemented with 10% (v/v) FCS and streptomycin/penicillin: 1:1 mixture of DMEM and Ham's F10 (HeLa), DMEM (human melanoma [BLM], osteosarcoma [U2OS], cervix carcinoma cells), L-15 (human squamous lung carcinoma [SW-1573]), Eagle's MEM (mouse osteosarcoma [MOS], rat rhabdomyosarcoma [R1]). Cells were maintained at 37° C. in an atmosphere containing 5% (HeLa, BLM), 10% (U2OS, cervix carcinoma cells), 2% (R1) or 0% (SW-1573) CO2. […]
(§2) In experiments involving NU1025 or irradiation, cells were trypsinized, counted and plated at appropriate concentrations into 60- or 35 mm dishes. […] Cells were then incubated for 7-14 days, fixed, stained and colonies exceeding 50 cells were counted. […] In experiments involving a combination of NU1025 and 17-DMAG, cells were first treated as indicated and subsequently trypsinized, counted and plated at various concentrations. […]

R1 cells = experiment: Clonogenic assay, R1 cells with mild hyperthermia; format: cell-based, rat; conditions: R1, 41° C.; for clonogenic survival: combination of 100 μM NU1025 and 100 nM 17-DMAG (FIG. 4B)
Protocol: (§3) Embryonic stem (ES) cells were cultured on gelatin-coated dishes in a 1:1 mixture of Dulbecco's modified Eagle's medium (DMEM) and buffalo rat liver conditioned medium, supplemented with 10% FBS (Hyclone), 0.1 mM nonessential amino acids (Biowhittaker), […] β-mercaptoethanol (Sigma) and 500 U ml-1 leukemia inhibitory factor. Other cells were cultured in following media, supplemented with 10% (v/v) FCS and streptomycin/penicillin: 1:1 mixture of DMEM and Ham's F10 (HeLa), DMEM (human melanoma [BLM], osteosarcoma [U2OS], cervix carcinoma cells), L-15 (human squamous lung carcinoma [SW-1573]), Eagle's MEM (mouse osteosarcoma [MOS], rat rhabdomyosarcoma [R1]). Cells were maintained at 37° C. in an atmosphere containing 5% (HeLa, BLM), 10% (U2OS, cervix carcinoma cells), 2% (R1) or 0% (SW-1573) CO2. Patients with cervical cancer expressed written informed consent to provide fresh biopsies during an investigation under general anesthesia, and use the tumor specimens for this study. This study was approved by the medical ethical committee of the AMC (MEC #03/137). The biopsies were minced using scalpel, then incubated in Liberase Blendzyme enzyme cocktail (Roche) in DMEM for 60 min at 37° C. and plated on glass coverslips in fresh culture medium. All incubations at elevated temperature were performed in a heated waterbath or in a water-filled cuvette placed in an incubator set to required temperature, in an atmosphere containing appropriate CO2 concentration.
The following inhibitors were used at the indicated final concentrations: 17-DMAG, 100 nM (Sigma-Aldrich), NU1025, 100 μM (Sigma-Aldrich), MG-132, 10 μM (Calbiochem).
as §2

SW-1573 cells = experiment: Clonogenic assay, SW-1573 cells; format: cell-based, human
Protocol: as §1, §2

MOS cells = experiment: Clonogenic assay, MOS cells; format: cell-based, mouse
Protocol: as §1, §2

PARP = conditions: cited from earlier work
BRCA2 [1] = experiment: Immunoblotting of BRCA2 in BLM cells under mild hyperthermia; format: cell-based, human; conditions: hyperthermia plus 100 nM 17-DMAG vs heat without 17-DMAG or 17-DMAG at 37° C. (FIG. 4A)
Protocol: as §3, with “The biopsies were minced using scalpel, then incubated in Liberase Blendzyme enzyme cocktail (Roche) in DMEM for 60 min at 37° C. and plated on glass coverslips in fresh culture medium. All incubations at elevated temperature were performed in a heated waterbath or in a water-filled cuvette placed in an incubator set to required temperature, in an atmosphere containing appropriate CO2 concentration.” left out
(§4) Cells were lysed in SDS sample buffer (2% SDS, 10% glycerol, 60 mM Tris-HCl pH 6.8). […] Protein concentration was determined by the Lowry protein assay, extracts were supplemented with 0.5% […] and 0.02% bromophenol blue. […]

[2] = test system: HR-mediated gene targeting; experiment: Gene targeting efficiency assay in ES cells; format: cell-based; conditions: mouse ES cells, 41° C. plus 100 nM 17-DMAG vs heat without 17-DMAG or 17-DMAG at 37° C. (FIG. 1C)
Protocol: as §3, with “All incubations at elevated temperature were performed in a heated waterbath or in a water-filled cuvette placed in an incubator set to required temperature, in an atmosphere containing appropriate CO2 concentration.” left out

PARP-2 = PARP-2 (Homo sapiens, UniProt Q9UGN5); conditions: cited from earlier work
BRCA2 [3] = experiment: Immunoblotting of BRCA2 in HeLa cells under mild hyperthermia; format: cell-based; conditions: exposed to 41° C. in presence of 10 μM MG132 (FIG. 2C)
Protocol: as §3, with “The biopsies were minced using scalpel, then incubated in Liberase Blendzyme enzyme cocktail (Roche) in DMEM for 60 min at 37° C. and plated on glass coverslips in fresh culture medium. All incubations at elevated temperature were performed in a heated waterbath or in a water-filled cuvette placed in an incubator set to required temperature, in an atmosphere containing appropriate CO2 concentration.” left out
as §4

recombinant PARP-1 = recombinant PARP-1 (Homo sapiens, UniProt P09874); conditions: recombinant PARP-1, cell-free assay; read-out: competitive inhibition Ki; cited from earlier work
[4] = PARP inhibitor potency as listed, isoform not stated

PARP-2, sequence (Q9UGN5 whole entry, species assumed): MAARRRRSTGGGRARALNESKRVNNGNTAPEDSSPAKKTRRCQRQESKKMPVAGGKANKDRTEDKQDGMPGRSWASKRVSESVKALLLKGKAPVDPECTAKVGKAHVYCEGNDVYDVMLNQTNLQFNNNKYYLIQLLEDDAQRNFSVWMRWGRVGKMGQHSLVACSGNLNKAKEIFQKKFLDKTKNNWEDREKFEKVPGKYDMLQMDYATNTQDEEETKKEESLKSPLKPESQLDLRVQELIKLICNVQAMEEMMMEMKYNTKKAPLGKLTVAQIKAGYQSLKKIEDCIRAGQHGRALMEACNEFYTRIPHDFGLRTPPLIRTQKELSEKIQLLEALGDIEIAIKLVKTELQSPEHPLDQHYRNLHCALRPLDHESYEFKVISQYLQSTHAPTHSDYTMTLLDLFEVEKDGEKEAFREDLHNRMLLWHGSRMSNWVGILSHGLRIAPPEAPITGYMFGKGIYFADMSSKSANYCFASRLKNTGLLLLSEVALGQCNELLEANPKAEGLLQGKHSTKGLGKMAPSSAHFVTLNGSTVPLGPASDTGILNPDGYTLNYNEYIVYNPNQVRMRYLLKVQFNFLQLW
recombinant PARP-1, sequence (P09874 whole entry, species assumed, canonical isoform): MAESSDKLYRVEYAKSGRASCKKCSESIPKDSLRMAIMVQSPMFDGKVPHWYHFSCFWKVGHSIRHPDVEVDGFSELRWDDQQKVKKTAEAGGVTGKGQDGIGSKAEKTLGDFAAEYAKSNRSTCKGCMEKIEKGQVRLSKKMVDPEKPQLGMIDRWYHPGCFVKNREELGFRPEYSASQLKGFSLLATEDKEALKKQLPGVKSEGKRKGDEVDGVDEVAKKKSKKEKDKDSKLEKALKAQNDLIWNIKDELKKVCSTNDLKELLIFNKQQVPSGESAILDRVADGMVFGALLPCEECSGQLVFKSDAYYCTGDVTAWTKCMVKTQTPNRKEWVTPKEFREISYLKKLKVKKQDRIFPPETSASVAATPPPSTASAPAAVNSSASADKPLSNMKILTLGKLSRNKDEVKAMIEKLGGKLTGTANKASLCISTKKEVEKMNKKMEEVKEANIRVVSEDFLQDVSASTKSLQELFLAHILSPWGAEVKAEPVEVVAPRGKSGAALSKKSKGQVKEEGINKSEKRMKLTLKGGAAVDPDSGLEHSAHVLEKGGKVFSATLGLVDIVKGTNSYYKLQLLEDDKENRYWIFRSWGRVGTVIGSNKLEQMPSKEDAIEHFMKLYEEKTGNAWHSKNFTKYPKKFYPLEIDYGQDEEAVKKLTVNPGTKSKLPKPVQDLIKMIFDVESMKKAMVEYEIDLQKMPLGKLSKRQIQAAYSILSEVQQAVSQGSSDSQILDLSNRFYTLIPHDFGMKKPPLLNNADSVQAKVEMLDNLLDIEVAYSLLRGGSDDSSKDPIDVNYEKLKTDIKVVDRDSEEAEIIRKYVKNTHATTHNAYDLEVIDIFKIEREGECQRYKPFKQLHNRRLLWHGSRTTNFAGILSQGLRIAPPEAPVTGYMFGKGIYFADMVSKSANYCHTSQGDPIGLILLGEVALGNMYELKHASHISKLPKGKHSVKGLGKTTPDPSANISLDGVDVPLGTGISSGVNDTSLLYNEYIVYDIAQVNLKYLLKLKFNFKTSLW

SMILES: Cc1nc2c(O)cccc2c(=O)[nH]1 [NU1025, 8-hydroxy-2-methylquinazoline-4-one]
- clonogenic survival compared to hyperthermia alone (U2OS cells): decrease in clonogenic survival
- clonogenic survival compared to hyperthermia alone (R1 cells; 100 μM NU1025 (FIG. 3B)): decrease in clonogenic survival
- clonogenic survival (R1 cells): dramatically reduced
- sensitivity to inhibitor alone (SW-1573 cells; SW-1573, NU1025 alone, data not shown): insensitive
- survival of hyperthermia-treated cells (SW-1573 cells; SW-1573, hyperthermia plus NU1025, data not shown): did not reduce survival
- sensitivity to inhibitor alone (MOS cells; NU1025 alone, data not shown): insensitive
- survival of hyperthermia-treated cells (MOS cells; hyperthermia plus NU1025, data not shown): did not reduce survival
- IC50 (PARP): 400 nM

SMILES: CO[C@H]1/C=C\C=C(/C)C(=O)NC2=CC(=O)C(NCCN(C)C)=C(C[C@@H](C)C[C@H](OC)[C@H](O)[C@@H](C)/C=C(\C)[C@@H]1OC(N)=O)C2=O [17-DMAG, 17-dimethylaminoethylamino-17-demethoxy-geldanamycin]
- clonogenic survival (R1 cells): dramatically reduced
- levels of BRCA2 protein (BRCA2 [1]): further reduced
- efficiency of HR-mediated gene targeting [2]: further reduced

SMILES: NC(=O)c1cccc2ncc(-c3ccc(Cl)cc3)nc12 [3-(4-chlorophenyl)quinoxaline-5-carboxamide]
- IC50 (PARP-2): 7 nM

SMILES: CC(C)C[C@@H](C=O)NC(=O)[C@H](CC(C)C)NC(=O)[C@H](CC(C)C)NC(=O)OCc1ccccc1 [MG132] (Cbz-Leu-Leu-Leu-aldehyde)
- BRCA2 levels on hyperthermia (BRCA2 [3]): no decrease of BRCA2 levels

SMILES: Nc1ncnc2c1ncn2C1OC(C(=O)N2CCN(CC(=O)Nc3cccc4c3CNC4=O)CC2)C(O)C1O [EB-47, 1-piperazineacetamide,4-[1-(6-amino-9H-purin-9-yl)-1-deoxy-6-D-ribofuranuron]-N-(2,3-dihydro-1H-isoindol-4-yl)-1-one]
- IC50 (PARP; [4]): 45 nM

SMILES: CN(C)c1ccc(O)c2c1C[C@H]1C[C@H]3[C@H](N(C)C)C(O)=C(C(N)=O)C(=O)[C@@]3(O)C(O)=C1C2=O [minocycline]
- Ki (recombinant PARP-1): 13.8 nM

SMILES: O=C1NCCc2c(OCCCCN3CCCCC3)cccc21 [DPQ, 3,4-dihydro-5[4-(1-piperindinyl)butoxy]-1(2H)-isoquinoline]
- IC50 (PARP; [4]): 40 nM

SMILES: Oc1cccc2c(O)nccc12 [IQD, 1,5-dihydroxyisoquinoline]
- IC50 (PARP; [4]): 390 nM

SMILES: Cc1nc2c(c(=O)[nH]1)CSCC2 [DR2313, 2-methyl-3,5,7,8-tetrahydrothiopyrano[4,3-d]pyrimidine-4-one]
- IC50 (PARP-2): 240 nM

SMILES: Nc1ccc2c3c(cccc13)C(=O)NC2=O [4-ANI, 4-amino-1,8-naphthalimide]
- IC50 (PARP): 180 nM

SMILES: O=C1N=C2SCC=C2c2ccccc21 [TIQ-A, thieno[2,3-c]isoquinolin-5-one]
- IC50 (PARP; [4]): 450 nM
